Experimental data taken from patent US10544154B2, “Opioid receptor antagonist prodrugs” (Nirsum Laboratories, Inc., priority 2017, dated 2020).

Assays:
[1] = Plasma stability, rat plasma (HPLC-MS); format: in vitro ADME; conditions: 10 μM, 37° C.
Experimental: (§1) Plasma stability determination of the test compounds in rat, dog, cynomolgus monkey and human plasma is performed using HPLC-MS. For rat, incubations are carried out in 96-well polypropylene plates in 5 aliquots of 70 μL each (one for each time point). […] Five time points are analyzed (0, 15, 120, 480 and 1440 min). For dog, monkey and human, test compounds (2 μM, final solvent concentration 1%) were also incubated at 37° C. and analyzed at five time points (0, 10, 30, 60 and 120 min). All incubations are performed in duplicates. The samples are analyzed by HPLC-MS. The percentage of parent compound remaining after incubation in plasma is determined.

[2] = Polymorph screening of solid state drug substances; format: physicochemical; conditions: for Dry method and appearance: after stirring at 50 °C for 72 hours; for XRPD results (Dried): dried solid
[3] = Solubility determination in oil (cottonseed oil, sesame oil), HPLC
Experimental: A known amount of test substance (˜40 mg) was weighed into the vial, 100 μL of oil was added and heated to 60° C. and then system was slurried to reach equilibrium. […] Then the clear solution was placed at room temperature (25° C.) for 24 h to confirm whether there was solid precipitation. Extra oil was added into the vial once compound precipitated out and then the system was re-equilibrated at 1000 rpm at room temperature (25° C.). Final concentration was determined by HPLC method as described below in Table 6a and 6b.

[4] = Plasma stability, dog plasma (HPLC-MS); format: in vitro ADME; conditions: 2 μM, 37° C.
Experimental: as §1

[5] = Plasma stability, cynomolgus monkey plasma (HPLC-MS); format: in vitro ADME; conditions: 2 μM, 37° C.
Experimental: as §1, with “For dog, monkey and human, test compounds (2 μM, final solvent concentration 1%) were also incubated at 37° C. and analyzed at five time points (0, 10, 30, 60 and 120 min).” left out

[6] = Plasma stability, human plasma (HPLC-MS); format: in vitro ADME; conditions: 2 μM, 37° C., 0 min
Experimental: as §1, with “For dog, monkey and human, test compounds (2 μM, final solvent concentration 1%) were also incubated at 37° C. and analyzed at five time points (0, 10, 30, 60 and 120 min).” left out

[7] = Heating Temp. 60 °C, Obs. Temp. 40 °C
[8] = Heating Temp. 60 °C, Obs. Temp. 25 °C

| SMILES | % remaining at time point in minutes, 0 min [1] | Dry method and appearance ([2]; Acetone) | XRPD results (Dried) ([2]; Acetone) | Dry method and appearance ([2]; EtOAc) | XRPD results (Dried) ([2]; EtOAc) | Dry method and appearance ([2]; Heptane) | XRPD results (Dried) ([2]; Heptane) | Dry method and appearance ([2]; Isopropanol) | XRPD results (Dried) ([2]; Isopropanol) | Dry method and appearance ([2]; MTBE) | XRPD results (Dried) ([2]; MTBE) | also measured |
| --- | --- | --- | --- | --- | --- | --- | --- | --- | --- | --- | --- | --- |
| CCCCCCCCCCCCOC(=O)Oc1ccc2c3c1O[C@H]1C(=O)CC[C@@]4(O)C(C2)N(CC2CC2)CC[C@]314 [Compound 11, (4aS,7aR,12bS)-3-(cyclopropylmethyl)-4a-hydroxy-7-oxo-2,3,4,4a,5,6,7,7a-octahydro-1H-4,12-methanobenzofuro[3,2-e]isoquinolin-9-yl dodecyl carbonate] | 100% | Evaporation/white powder | Pattern A | Evaporation/white powder | Pattern A | Evaporation/white powder | Pattern B | Evaporation/white powder | Pattern A | Evaporation/white powder | Pattern A | % remaining at time point in minutes, 15 min [1]: 0.7%; % remaining at time point in minutes, 120 min ([1]; 120 min): 0.3%; % remaining at time point in minutes, 480 min [1]: 0.2%; % remaining at time point in minutes, 1440 min [1]: 0% |
| C=C1CC[C@@]2(O)C3Cc4ccc(OC(=O)CCCCCCCCCCCCCCCCCCCCC)c5c4[C@@]2(CCN3CC2CC2)[C@H]1O5 [Compound 14, (4aS,7aS,12bS)-3-(cyclopropylmethyl)-4a-hydroxy-7-methylene-2,3,4,4a,5,6,7,7a-octahydro-1H-4,12-methanobenzofuro[3,2-e]isoquinolin-9-yl docosanoate] | 100% | Evaporation/white powder | Pattern A | Evaporation/white powder | Pattern A | Centrifugation/white powder | Pattern B | Evaporation/white powder | Pattern A | Evaporation/white powder | Pattern A | % remaining at time point in minutes, 15 min [1]: 94%; % remaining at time point in minutes, 1440 min [1]: 120%; Visual observation RT ([2]; Acetone, target conc. 100 mg/ml, RT): Slurry |
| C=C1CC[C@@]2(O)C3Cc4ccc(OC(=O)OCCCCCCCCCCCCCCCC)c5c4[C@@]2(CCN3CC2CC2)[C@H]1O5 [Compound 19, (4aS,7aS,12bS)-3-(cyclopropylmethyl)-4a-hydroxy-7-methylene-2,3,4,4a,5,6,7,7a-octahydro-1H-4,12-methanobenzofuro[3,2-e]isoquinolin-9-yl hexadecyl carbonate] | 100% | Evaporation/white powder | Pattern A | Evaporation/white powder | Pattern A | Evaporation/white powder | Pattern A | Evaporation/white powder | Pattern A | Evaporation/white powder | Pattern A | – |
| CCCCCCCCCCCCCCCCOC(=O)Oc1ccc2c3c1O[C@H]1C(=O)CC[C@@]4(O)C(C2)N(CC2CC2)CC[C@]314 [Compound 21, (4aS,7aR,12bS)-3-(cyclopropylmethyl)-4a-hydroxy-7-oxo-2,3,4,4a,5,6,7,7a-octahydro-1H-4,12-methanobenzofuro[3,2-e]isoquinolin-9-yl hexadecyl carbonate] | 100% | Evaporation/white powder | Pattern A | Evaporation/white powder | Pattern A | Evaporation/white powder | Pattern A | Evaporation/white powder | Pattern A | Evaporation/white powder | Pattern A | Approximate Solubility in Excipient: Cottonseed oil [3, 7]: 101 to 134.8 mg/mL; Approximate Solubility in Excipient: Sesame oil [3, 7]: 101 to 134.5 mg/mL |
| CCCCCCCC/C=C/CCCCCCCC(=O)OCOc1ccc2c3c1O[C@H]1C(=O)CC[C@@]4(O)C(C2)N(CC2CC2)CC[C@]314 [Compound 26, (((4aS,7aR,12bS)-3-(cyclopropylmethyl)-4a-hydroxy-7-oxo-2,3,4,4a,5,6,7,7a-octahydro-1H-4,12-methanobenzofuro[3,2-e]isoquinolin-9-yl)oxy)methyl (E)-octadec-9-enoate] | – | – | – | – | – | – | – | – | – | – | – | Approximate Solubility in Excipient: Cottonseed oil [3, 8]: 204.3 to 239 mg/mL |
| C=C1CC[C@@]2(O)C3Cc4ccc(OC(=O)OCCCCCCCCCCCCCC)c5c4[C@@]2(CCN3CC2CC2)[C@H]1O5 [Compound 31, (4aS,7aS,12bS)-3-(cyclopropylmethyl)-4a-hydroxy-7-methylene-2,3,4,4a,5,6,7,7a-octahydro-1H-4,12-methanobenzofuro[3,2-e]isoquinolin-9-yl tetradecyl carbonate] | 100% | Evaporation/white powder | Pattern A | Evaporation/white powder | Pattern A | Evaporation/white powder | Pattern A | Evaporation/white powder | Pattern A | Evaporation/white powder | Pattern A | – |
| C=C1CC[C@@]2(O)C3Cc4ccc(OC(=O)CCCCCCC/C=C\C/C=C\CCCCC)c5c4[C@@]2(CCN3CC2CC2)[C@H]1O5 [Compound 37, (4aS,7aS,12bS)-3-(cyclopropylmethyl)-4a-hydroxy-7-methylene-2,3,4,4a,5,6,7,7a-octahydro-1H-4,12-methanobenzofuro[3,2-e]isoquinolin-9-yl (9Z,12Z)-octadeca-9,12-dienoate] | – | – | – | – | – | – | – | – | – | – | – | Approximate Solubility in Excipient: Cottonseed oil [3, 8]: 68.5 to 82 mg/mL |
| C=C1CC[C@@]2(O)C3Cc4ccc(OC(=O)CCC5CCCC5)c5c4[C@@]2(CCN3CC2CC2)[C@H]1O5 [Compound 39, (4aS,7aS,12bS)-3-(cyclopropylmethyl)-4a-hydroxy-7-methylene-2,3,4,4a,5,6,7,7a-octahydro-1H-4,12-methanobenzofuro[3,2-e]isoquinolin-9-yl 3-cyclopentylpropanoate] | – | – | – | – | – | – | – | – | – | – | – | Approximate Solubility in Excipient: Cottonseed oil ([3]; Heating Temp. 40 °C, Obs. Temp. 40 °C): 225 to 402.2 mg/mL |
| CCCCC/C=C\C/C=C\CCCCCCCC(=O)Oc1ccc2c3c1O[C@H]1C(=O)CC[C@@]4(O)C(C2)N(CC2CC2)CC[C@]314 [Compound 53, (4aS,7aR,12bS)-3-(cyclopropylmethyl)-4a-hydroxy-7-oxo-2,3,4,4a,5,6,7,7a-octahydro-1H-4,12-methanobenzofuro[3,2-e]isoquinolin-9-yl (9Z,12Z)-octadeca-9,12-di.enoate] | 100% | – | – | – | – | – | – | – | – | – | – | Approximate Solubility in Excipient: Cottonseed oil [3, 8]: >408.5 mg/mL; Approximate Solubility in Excipient: Sesame oil [3, 8]: >401.9 mg/mL; Approximate Solubility in Excipient: Sesame oil [3, 7]: >406.3 mg/mL; % remaining at time point in minutes, 480 min [1]: 7.3%; % remaining at time point in minutes, 1440 min [1]: 1.9% |
| CCCCCCCCCCCCCCCC(=O)Oc1ccc2c3c1O[C@H]1C(=O)CC[C@@]4(O)C(C2)N(CC2CC2)CC[C@]314 [Compound 55, (4aS,7aR,12bS)-3-(cyclopropylmethyl)-4a-hydroxy-7-oxo-2,3,4,4a,5,6,7,7a-octahydro-1H-4,12-methanobenzofuro[3,2-e]isoquinolin-9-yl palmitate] | 100% | Evaporation/white powder | Pattern B | Evaporation/white powder | Pattern B | Evaporation/white powder | Pattern B | Evaporation/white powder | Pattern B | Evaporation/white powder | Pattern B | – |
| CCCCCCCCCCCCCCCC(=O)OC1CCCn2c1nc(C)c(CCN1CCC(c3noc4cc(F)ccc34)CC1)c2=O (stereo not shown) [Paliperidone palmitate, reference compound] | – | – | – | – | – | – | – | – | – | – | – | % remaining at time point in minutes, 0 min [4]: 100%; % remaining at time point in minutes, 0 min ([5]; 0 min): 100%; % remaining at time point in minutes, 15 min ([5]; 15 min): 92%; % remaining at time point in minutes, 0 min [6]: 100% |
